Laboratory results as given in patent publication US8071625B2, “Certain chemical entities, compositions, and methods” (Cytokinetics, Inc., priority 2006, dated 2011).

What follows are molecules tested against T1, crosslinked smooth muscle actomyosin (chicken gizzard smooth muscle myosin subfragment-1 crosslinked to cardiac or skeletal actin) (Gallus gallus, UniProt P10587) (assay: Lead optimization pyruvate kinase/horseradish peroxidase/pyruvate oxidase-coupled ATPase assay (compound dose response)). Settings: read-out: IC50 Arithmetic Mean.
T1 construct: chicken gizzard smooth muscle myosin subfragment-1; from tissue; host or cells: chicken gizzard
Format: biochemical
Experimental: Screening assays were performed using a pyruvate kinase and lactate dehydrogenase-coupled ATPase assay containing the following reagents: Potassium PIPES (50 mM), MgCl2 (3 mM), KCl (100 mM), ATP (0.15 mM), DTT (1 mM), BSA (0.1 mg/ml), NADH (0.5 mM), PEP (1.5 mM), pyruvate kinase (4 U/ml), lactate dehydrogenase (8 U/ml), and antifoam (50 ppm) (concentrations expressed are final assay concentrations). The pH was adjusted to 6.80 at 22° C. by addition of potassium hydroxide. Lead optimization assays were performed with a more sensitive pyruvate kinase/horseradish peroxidase/pyruvate oxidase-coupled ATPase assay containing the following reagents: Potassium PIPES (12 mM), MgCl2 (2 mM), KCl (100 mM), ATP (0.15 mM), BSA (0.05 mg/ml), potassium phosphate (2 mM), amplex red (0.1 mM), PEP (0.1 mM), pyruvate kinase (4 U/ml), horseradish peroxidase (0.5 U/ml), pyruvate oxidase (0.5 U/ml), and antifoam (50 ppm) (concentrations expressed are final assay concentrations). The pH was adjusted to 7.00 at 22° C. by addition of potassium hydroxide.
The protein components specific to this assay are chicken gizzard smooth muscle myosin subfragment-1 that has been chemically crosslinked to either cardiac or skeletal actin using an excess of 1-Ethyl-3-[3-dimethylaminopropyl]carbodiimide hydrochloride and N-hydroxysuccinimide. The exact concentration of the crosslinked smooth muscle myosin in the assay is determined empirically, by titration to achieve a desired rate of ATP hydrolysis. The concentration varies between protein preparations due to variations in the fraction of active molecules in each preparation.
Compound dose response assays are performed by first preparing a dilution series of test compound, each with an assay mixture containing potassium PIPES, MgCl2, KCl, ATP, BSA, potassium phosphate, amplex red, PEP, crosslinked smooth muscle actomyosin (subfragment-1), antifoam, and water. The assay is started by adding an equal volume of solution containing potassium Pipes, MgCl2, KCl, BSA, potassium phosphate, pyruvate kinase, horseradish peroxidase, pyruvate oxidase, antifoam, and water. ATP hydrolysis is monitored by measuring the fluorescence of amplex red (excitation at 480 nm, emission at 615 nm). The resulting dose response curve is fit by the 4 parameter equation y=Bottom+((Top-Bottom)/(1+((IC50/X)^Hill))). The IC50 is defined as the concentration at which ATPase activity is midway between the top and bottom of the dose response curve.

SMILES | IC50 [nM]
CCc1ccc(NC(=O)OCC2(C(=O)NCc3ccccc3Cl)CCN(C(=O)C(N)CO)CC2)cc1 (centres unmarked) [(1-(2-amino-3-hydroxypropanoyl)-4-{[N-(4-ethylphenyl)carbamoyloxy]methyl}(4-piperidyl))-N-[(2-chlorophenyl)methyl]carboxamide] | 143
CCc1ccc(NC(=O)OCC2(C(=O)NCc3ccccc3Cl)CCN(C(=O)C(N)C(C)C)CC2)cc1 (centres unmarked) [(1-(2-amino-3-methylbutanoyl)-4-{[N-(4-ethylphenyl)carbamoyloxy]methyl}(4-piperidyl))-N-[(2-chlorophenyl)methyl]carboxamide] | 540
CCc1ccc(NC(=O)OCC2(C(=O)NCc3ccccc3Cl)CCCN(C(=O)CN)C2)cc1 (centres unmarked) [(1-(2-aminoacetyl)-3-{[N-(4-ethylphenyl)carbamoyloxy]methyl}(3-piperidyl))-N-[(2-chlorophenyl)methyl]carboxamide] | 474
CCc1ccc(NC(=O)OCC2(C(=O)NCc3ccccc3Cl)CCN(C(=O)CN)C2)cc1 (centres unmarked) [(1-(2-aminoacetyl)-3-{[N-(4-ethylphenyl)carbamoyloxy]methyl}pyrrolidin-3-yl)-N-[(2-chlorophenyl)methyl]carboxamide] | 526
CCc1ccc(NC(=O)OCCC2(C(=O)NCc3ccccc3Cl)CCN(C(=O)CN)CC2)cc1 [(1-(2-aminoacetyl)-4-{2-[N-(4-ethylphenyl)carbamoyloxy]ethyl}(4-piperidyl))-N-[(2-chlorophenyl)methyl]carboxamide] | 2440
Cc1ccc(NC(=O)OCC2(C(=O)NCc3ccccc3Cl)CCN(C(=O)CN)CC2)c(Cl)c1 [(1-(2-aminoacetyl)-4-{[N-(2-chloro-4-methylphenyl)carbamoyloxy]methyl}(4-piperidyl))-N-[(2-chlorophenyl)methyl]carboxamide] | 281
Cc1ccc(NC(=O)OCC2(C(=O)NCc3ccccc3Cl)CCN(C(=O)CN)CC2)cc1F [(1-(2-aminoacetyl)-4-{[N-(3-fluoro-4-methylphenyl)carbamoyloxy]methyl}(4-piperidyl))-N-[(2-chlorophenyl)methyl]carboxamide] | 742
NCC(=O)N1CCC(COC(=O)Nc2ccc(Cl)cc2)(C(=O)NCc2ccccc2Cl)CC1 [(1-(2-aminoacetyl)-4-{[N-(4-chlorophenyl)carbamoyloxy]methyl}(4-piperidyl))-N-[(2-chlorophenyl)methyl]carboxamide] | 569
N#Cc1ccc(NC(=O)OCC2(C(=O)NCc3ccccc3Cl)CCN(C(=O)CN)CC2)cc1 [(1-(2-aminoacetyl)-4-{[N-(4-cyanophenyl)carbamoyloxy]methyl}(4-piperidyl))-N-[(2-chlorophenyl)methyl]carboxamide] | 7780
CCc1ccc(NC(=O)OCC2(C(=O)NCc3ccccc3Cl)CCN(C(=O)CN)CC2)cc1 [(1-(2-aminoacetyl)-4-{[N-(4-ethylphenyl)carbamoyloxy]methyl}(4-piperidyl))-N-[(2-chlorophenyl)methyl]carboxamide] | 175
CCc1ccc(NC(=O)OCC2(C(=O)NCc3ccccc3C#N)CCN(C(=O)CN)CC2)cc1 [(1-(2-aminoacetyl)-4-{[N-(4-ethylphenyl)carbamoyloxy]methyl}(4-piperidyl))-N-[(2-cyanophenyl)methyl]carboxamide] | 904
CCc1ccc(NC(=O)OCC2(C(=O)NCc3ccccc3F)CCN(C(=O)CN)CC2)cc1 [(1-(2-aminoacetyl)-4-{[N-(4-ethylphenyl)carbamoyloxy]methyl}(4-piperidyl))-N-[(2-fluorophenyl)methyl]carboxamide] | 307
CCc1ccc(NC(=O)OCC2(C(=O)NCc3ccccc3OC)CCN(C(=O)CN)CC2)cc1 [(1-(2-aminoacetyl)-4-{[N-(4-ethylphenyl)carbamoyloxy]methyl}(4-piperidyl))-N-[(2-methoxyphenyl)methyl]carboxamide] | 2160
CCc1ccc(NC(=O)OCC2(C(=O)NCc3ccccc3C)CCN(C(=O)CN)CC2)cc1 [(1-(2-aminoacetyl)-4-{[N-(4-ethylphenyl)carbamoyloxy]methyl}(4-piperidyl))-N-[(2-methylphenyl)methyl]carboxamide] | 167
